Results on two molecules are retold here after article PMC2034157, “CRC/EORTC/NCI Joint Formulation Working Party: experiences in the formulation of investigational cytotoxic drugs” (British Journal of Cancer, 1995).

Data set [1] in a line: In vivo anti-tumour activity. An excerpt: (§1) Brsh Jowbnl d Cancer ( ) 72, 210-218 ? […] Figwe 3 Chemical stnruu of disulphonated aluminium phthalocyamne.
A short description of data set [2]: Preliminary murine toxicological study. As to conditions: PET solvent system formulation. It is filed as in vivo.
From the text: as §1

Data set [3] can be described thus: In vitro anti-tumour activity. It is filed as cell-based.
From the text: as §1

For data set [4] the following is noted: in 2 h; 10% fat emulsion (Intralipid), 0.7 mg ml-1, 1% DMA, 5% Cremophor EL; ref El-Sayed and Repta 1983; cited from earlier work.
Another data set relates to solid tumour models. Briefly: Activity in solid tumour models. As to conditions: several solid tumour models. It counts as in vivo.
From the text: as §1

A short description of another data set: Aqueous solubility. The note with it: water / aqueous solution.
The nature of data set [5]: Solution stability / decomposition studies. The note with it: 66% aqueous acetone at 25 C. From the text: Figwe 3 Chemical stnruu of disulphonated aluminium phthalocyamne.

The structures appear in SMILES notation.

As to `COc1ccc(/C=C\c2cc(OC)c(OC)c(OC)c2)cc1O` [Combretastatin A4], in data set [1], the in vivo activity entry is listed as “no significant”. In addition, the local tolerance result in data set [2] is reported as “severe irritation at the injection site”. In addition, the “in vitro anti-tumour activity” value in data set [3] was “excellent”.

On to `CC(C)NC(=O)OCc1c(COC(=O)NC(C)C)c(-c2ccc(Cl)c(Cl)c2)n2c1CCC2` [NSC-278214, reference compound], for which the drug decomposed entry in data set [4] is on record as “about 10%”. Also, in the data set with solid tumour models, the anti-tumour activity entry is listed as “activity”. For the same molecule, the “aqueous solubility (in words)” value in the data set “Aqueous solubility” is listed as “negligible”. In addition, the half-life result in data set [5] is recorded as “around 5 mi”.
